“Also recorded” adds a separate entry of the source. Read-outs that look alike come from different tables or passages of the source.
Columns and labels:
Format in all cases: cell-based
[1] = system: homologous recombination (HR) repair of Cas9 DSB in HCT116 cells; experiment: cells; details: for Effect on rate of HR: HCT116 cells
Experimental: (§1) All cell lines were plated in 12-well plates at 2.5E5 cells/well in their respective growth mediums. […]. The DNA was mixed with Opti-MEM (50 ul Opti-MEM/ug DNA) and FuGENE was added for an incubation period of 15 minutes before being added dropwise to the well. If drug is being utilized, cells are dosed immediately prior to transfection. Fresh growth medium was replaced every 48-72 hours. Cells were kept in culture for 1 week before assessment of fluorescence via flow cytometry.
(§2) All compounds used can be found listed in Table 1, and all were purchased from Selleck. All drugs were dissolved in DMSO as per Selleck instructions. […].
(§3) Medium was removed from 12-well plates and cells were detached from plate using TrypLE Express. FBS containing medium was used to neutralize TrypLE Express and cells were collected and spun down at 1000 RPM for 5 min. Cell pellets were then washed with PBS twice before resuspension in 500 ul PBS and put on ice. Prior to flow of each sample, cells were resuspended and put through a cell-strainer cap on the flow tube. Cells were gated to ensure single cell population as well as high DsRed expression. For each sample, 10,000-30,000 high DsRed expressing cells were counted depending on sample concentration, and assessed for both EGFP and BFP expression. FlowJo was utilized to analyze all flow cytometry results and to produce statistics on each population.
Graphpad Prism was utilized to visualize statistical results from FlowJo. […]
(§4) The RepairSwitch assay was developed to measure the balance of HR- and NHEJ-mediated double-strand break (DSB) repair. […] In this system, the resulting fluorescence, post CRISPR/Cas9 cutting at the target locus, is dependent on the method of repair. […] Either, the EGFP fluorescence will be extinguished due to the error prone repair, or it is possible for the EGFP protein to be repaired correctly or with a silent mutation via NHEJ, thereby producing a viable fluorescent signal. […] A schematic of the RepairSwitch assay readout (FIG. 1B) provides a concise overview of the possible fluorescent outcomes and their respective implications.

[2] = system: homologous recombination (HR) repair of Cas9 DSB in HEK293FT cells; experiment: RepairSwitch assay, rate of HR (EGFP to BFP switch, flow cytometry); details: for IC50: RepairSwitch, 1 week after transfection, read-out: IC50 for inhibition of HR rate; for Effect on rate of HR: dose range 1 nm to 10 uM
Experimental: (§5) All cell lines were plated in 12-well plates at 2.5E5 cells/well in their respective growth mediums. The growth medium was then replaced after 24-48 hours and the cells were transfected with lug of CRISPR/Cas9 gRNA construct, lug of HR repair template, or both gRNA and HR repair template (2 ug total) in combination using FuGENE HD (Promega) at a FuGENE to DNA ratio of 3:1. The DNA was mixed with Opti-MEM (50 ul Opti-MEM/ug DNA) and FuGENE was added for an incubation period of 15 minutes before being added dropwise to the well. If drug is being utilized, cells are dosed immediately prior to transfection. Fresh growth medium was replaced every 48-72 hours. Cells were kept in culture for 1 week before assessment of fluorescence via flow cytometry.
(§6) All drugs were dissolved in DMSO as per Selleck instructions. For cell-based work drugs were diluted to a final concentration of 0.001% DMSO. All drugs were given in a dose range of 1 nm to 10 uM, unless toxicity was shown in Incucyte proliferation assays (S1, S2).
as §3
Graphpad Prism was utilized to visualize statistical results from FlowJo. Additionally, it was utilized to provide statistical analyses of p value using unpaired t-tests.
The RepairSwitch assay was developed to measure the balance of HR- and NHEJ-mediated double-strand break (DSB) repair. To accomplish this, it was necessary to design assay vectors that could be lenti-virally transduced into cells and would thereby be incorporated into the genome. […] Additionally, it allowed DsRed to serve as a transduction control to ensure vector integration at an MOI of 0.3, while EGFP served as a target for CRISPR/Cas9 induced DSB. […] Additionally, in conjunction with the administration of the CRISPR/Cas9 EGFP gRNA, exogenous single stranded DNA oligos were administered in excess and act as the repair template. In this system, the resulting fluorescence, post CRISPR/Cas9 cutting at the target locus, is dependent on the method of repair. Upon utilization of the repair template in repair via homologous recombination (HR) the resulting locus will be converted from EGFP to BFP. This is possible due to the sequence similarity of these fluorescent proteins, which differ in only two bases, resulting in the substitution of two adjacent amino acids. […] Either, the EGFP fluorescence will be extinguished due to the error prone repair, or it is possible for the EGFP protein to be repaired correctly or with a silent mutation via NHEJ, thereby producing a viable fluorescent signal. […] A schematic of the RepairSwitch assay readout (FIG. 1B) provides a concise overview of the possible fluorescent outcomes and their respective implications.

[3] = system: non-homologous end joining (NHEJ) repair of Cas9 DSB in HEK293FT cells; experiment: RepairSwitch assay, rate of NHEJ (loss of EGFP, flow cytometry); details: dose range 1 nm to 10 uM
Experimental: as §5, §6
Medium was removed from 12-well plates and cells were detached from plate using TrypLE Express. FBS containing medium was used to neutralize TrypLE Express and cells were collected and spun down at 1000 RPM for 5 min. […] For each sample, 10,000-30,000 high DsRed expressing cells were counted depending on sample concentration, and assessed for both EGFP and BFP expression. […]
as §4

[4] = system: non-homologous end joining (NHEJ) repair of Cas9 DSB in HCT116 cells; experiment: as above
Experimental: as §1, §2
Medium was removed from 12-well plates and cells were detached from plate using TrypLE Express. […] For each sample, 10,000-30,000 high DsRed expressing cells were counted depending on sample concentration, and assessed for both EGFP and BFP expression. […]
The RepairSwitch assay was developed to measure the balance of HR- and NHEJ-mediated double-strand break (DSB) repair. […] In this system, the resulting fluorescence, post CRISPR/Cas9 cutting at the target locus, is dependent on the method of repair. […] Either, the EGFP fluorescence will be extinguished due to the error prone repair, or it is possible for the EGFP protein to be repaired correctly or with a silent mutation via NHEJ, thereby producing a viable fluorescent signal. […]

## Nc1ncn([C@H]2C[C@H](O)[C@@H](CO)O2)c(=O)n1 [Decitabine]
[1]
  Effect on rate of HR: also consistent in HCT116 cells
[1]; listed as decitabine
  Effect on rate of HR: reduced HR
[1]; Homo sapiens, HCT-116, read-out: IC50 for inhibition of HR rate
  IC50: 1400 nM
[2]; 168 h
  IC50: 187 nM
[2]
  Effect on rate of HR: dose responsive decrease in the rates of HR
[2]; listed as decitabine
  Effect on rate of HR: reduced HR
[3]
  Effect on rate of NHEJ: compensatory increase in the rates of NHEJ
[3]; listed as decitabine
  Effect on rate of NHEJ: increased rates of NHEJ
[4]
  Effect on rate of NHEJ: also consistent in HCT116 cells
[4]; listed as decitabine
  Effect on rate of NHEJ: increased rates of NHEJ

## Olaparib
[2]
  IC50: 739 nM
  Effect on rate of HR: lower potency in modulating HR and NHEJ; also recorded: subtle reduction in rates of HR
[3]
  Effect on rate of NHEJ: lower potency in modulating HR and NHEJ; also recorded: subtle increase in the rates of NHEJ

Source: patent US20230003718A1, “METHODS FOR ASSESSING RATES OF DNA REPAIR” (The Johns Hopkins University, priority 2021, published 2023)
